Laboratory results from the OPERA property sets (Mansouri et al. 2018).

Conditions: for log10 BCF / log10 biotransformation half-life (days): fish

SMILES | melting point [°C] | boiling point [°C] | further results
O=c1[nH]c(=O)n([C@H]2C[C@H](O)[C@@H](CO)O2)cc1F | 150 |  | 
CCOC(=O)C1OC1(C)c1ccccc1 (stereo not drawn) |  | 274 | 
CCC(CC)CCl |  | 126 | 
Cc1ccc(C)c(Cc2ccccc2)c1 |  |  | ready biodegradability: not readily biodegradable; log10 BCF: 3.14; log10 biotransformation half-life (days): 0.45
CCOC(=O)NC(C)(C)Cc1ccc(Cl)cc1 | 52.8 |  | 
CC(=O)N(C(C)=O)c1ccccc1 | 37.5 |  | 
O=C(O)CCCCCc1ccccc1 | 23 |  | 
CCCCCCCCOC(C)=O | -38.5 | 210 | 
ClCOCCl | -41.5 | 106 | log10 vapour pressure (mmHg): 1.47
Fc1c(F)c(F)c(CBr)c(F)c1F |  | 174 | 
CC1=C(/C=C/C(C)=C/C=C/C(C)=C/C(=O)O)C(C)(C)CCC1 | 181 |  | 
OCCc1ccc(Cl)cc1 |  | 259 | 
CCCCCCCCCCCCF |  |  | log10 vapour pressure (mmHg): -0.682
CCCCCCCCCCCCCCCCCCCCC1CCCCC1 | 48.5 | 430 | 
CC(C)(C)OC(=O)CCl |  | 150 | 
CC(=O)O[C@]1(C(C)=O)CC[C@H]2[C@@H]3C[C@H](C(F)(F)F)C4=CC(=O)CC[C@]4(C)[C@H]3CC[C@@]21C | 206 |  | 
O[C@@H](c1ccccc1)[C@@H](O)c1ccccc1 | 138 |  | 
CC(=O)Nc1cccnc1 | 133 | 326 | 
FC(F)(F)C1(F)C(F)(F)C(F)(C(F)(F)F)C(F)(F)C(F)(C(F)(F)F)C1(F)F (stereo not drawn) |  | 125 | 
CCC(O)(CC)C(C)C |  | 160 | 

SMILES | melting point [°C] | boiling point [°C] | further results
CC(CCN(C)C)N(C)C (stereo not drawn) |  | 165 | 
O=C1NC(=O)C2CC=CCC12 (stereo not drawn) |  |  | ready biodegradability: not readily biodegradable
CCCN(CCC)c1c([N+](=O)[O-])cc(C)cc1[N+](=O)[O-] | 80 |  | 
CCCCOC(=O)c1ccccc1C(=O)OCCCC | -35 | 340 | log10 Henry constant (atm·m³/mol): -5.74; log10 Koc (L/kg): 3.14; log10 vapour pressure (mmHg): -4.7; ready biodegradability: readily biodegradable; log10 BCF: 2.22; log10 biotransformation half-life (days): -0.4
CC=CC(C)(C)O |  | 112 | 
Cc1c(C)c(C)c(N)c(C)c1C | 152 | 278 | 
COc1ccc2c(c1)CCCC2=O | 78 |  | 
Oc1ccc(Cl)cc1Cl | 45 | 210 | log10 Koc (L/kg): 2.81; log10 vapour pressure (mmHg): -1.05; ready biodegradability: not readily biodegradable; log10 BCF: 1.53; log10 biotransformation half-life (days): -0.94
COc1c(Cl)c(Cl)c(Cl)c(Cl)c1OC | 90 |  | 
COc1ccccc1 | -37.5 | 154 | log10 Koa: 4.01; log10 Koc (L/kg): 1.54; log10 vapour pressure (mmHg): 0.549; ready biodegradability: readily biodegradable
COC(=O)Nc1nc2ccc(C(=O)c3ccc(F)cc3)cc2[nH]1 | 260 |  | 
Sc1ccc(Cl)cc1 | 61 | 206 | 
CNCCN |  | 115 | 
Clc1cc2c(Cl)c(Cl)c(Cl)cc2c(Cl)c1Cl |  |  | log10 Koa: 9.58; log10 vapour pressure (mmHg): -6.46
CCOc1ccc(Br)cc1 | 4 | 231 | 
COC(=O)C(=O)Cl |  | 119 | 
CCCN(CCC)C(=O)SCc1ccccc1 |  |  | log10 vapour pressure (mmHg): -6.29
CC(c1c(O)c2ccccc2oc1=O)c1c(O)c2ccccc2oc1=O | 178 |  | 
C[Si](Cl)(Cl)Cl | -90 | 65.6 | log10 vapour pressure (mmHg): 2.22
OCCC(F)(F)C(F)(F)C(F)(F)C(F)(F)C(F)(F)C(F)(F)C(F)(F)C(F)(F)F |  |  | ready biodegradability: not readily biodegradable

SMILES | melting point [°C] | boiling point [°C] | further results
CC[N+](C)(CC)CCOC(=O)C(O)(c1cccs1)C1CCCC1.[Br-] (stereo not drawn) | 125 |  | 
CCOc1ccc2ccccc2c1C=O | 115 |  | 
O=C(O)Cc1ccc(-c2ccccc2)cc1 | 160 |  | 
C#CCCl |  | 58 | 
CC[C@H]1O[C@]2(CC[C@@H]1C)C[C@@H]1C[C@@H](CC=C(C)C[C@@H](C)C=CC=C3CO[C@@H]4[C@H](O)C(C)=C[C@@H](C(=O)O1)[C@]34O)O2 | 214 |  | 
Cc1ccc(O)cc1C |  |  | ready biodegradability: readily biodegradable
Nc1cc(S(=O)(=O)O)cc2cc(S(=O)(=O)[O][Na])cc(O)c12 |  |  | log10 BCF: 0.46
CCCCCCCCCCCCCCC(=O)OC | 18.5 |  | log10 vapour pressure (mmHg): -3.79
O=C(O)C(c1ccccc1)c1ccccc1 | 147 |  | 
CN(C)N | -58 | 63.9 | log10 vapour pressure (mmHg): 2.21; ready biodegradability: not readily biodegradable
O=C(O)c1cccnc1 | 237 |  | ready biodegradability: readily biodegradable
C=C=CCCl |  | 88 | 
Brc1cncc(Br)c1 | 112 | 222 | 
ClCBr | -87.9 | 68 | log10 vapour pressure (mmHg): 2.15; ready biodegradability: not readily biodegradable; log10 BCF: 0.6; log10 biotransformation half-life (days): -0.74
CCCC(CC)(CC)CC |  | 166 | 
O=Cc1ccnc2ccccc12 | 51 |  | 
CCOC(=O)CN |  | 149 | 
O=C(O)CSCc1ccccc1 | 61 |  | 
CCNCC(O)c1cccc(O)c1 (stereo not drawn) | 148 |  | 
Nc1ccccc1C(=O)O | 145 |  | ready biodegradability: readily biodegradable
